Measured values reported in US20120214847A1, “2-[1-PHENYL-5-HYDROXY-4a-SUBSTITUTED-HEXAHYDROCYCLOPENTA[F]INDAZOL-5-YL]ETHYL PHENYL DERIVATIVES AS GLUCOCORTICOID RECEPTOR LIGANDS” (Merck Sharp & Dohme Corp., priority 2009, published 2012).
pEC50: −log10 of the molar value.

Target: T1, human GR (Homo sapiens, UniProt P04150)
T1 construct: naturally expresses the human GR; endogenous in cells
T1 sequence (P04150 1-777): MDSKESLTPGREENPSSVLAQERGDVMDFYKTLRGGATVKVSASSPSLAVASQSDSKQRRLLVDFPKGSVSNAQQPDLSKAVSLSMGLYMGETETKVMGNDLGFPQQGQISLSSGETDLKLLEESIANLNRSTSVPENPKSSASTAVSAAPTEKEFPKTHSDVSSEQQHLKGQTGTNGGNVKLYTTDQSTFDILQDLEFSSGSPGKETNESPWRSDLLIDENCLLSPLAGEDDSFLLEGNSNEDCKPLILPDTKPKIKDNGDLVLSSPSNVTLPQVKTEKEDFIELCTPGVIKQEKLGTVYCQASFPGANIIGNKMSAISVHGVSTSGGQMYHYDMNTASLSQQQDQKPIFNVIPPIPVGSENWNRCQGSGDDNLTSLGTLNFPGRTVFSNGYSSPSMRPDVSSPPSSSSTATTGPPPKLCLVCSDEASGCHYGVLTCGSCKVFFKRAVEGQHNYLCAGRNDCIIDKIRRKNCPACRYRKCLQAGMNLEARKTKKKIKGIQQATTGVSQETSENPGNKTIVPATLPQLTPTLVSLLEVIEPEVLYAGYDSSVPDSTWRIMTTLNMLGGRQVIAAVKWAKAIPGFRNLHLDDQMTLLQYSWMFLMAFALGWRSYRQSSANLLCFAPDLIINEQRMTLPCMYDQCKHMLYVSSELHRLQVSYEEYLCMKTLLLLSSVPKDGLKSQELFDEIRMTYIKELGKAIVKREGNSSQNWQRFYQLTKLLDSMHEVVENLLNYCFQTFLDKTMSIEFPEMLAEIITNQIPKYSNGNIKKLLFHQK
Assay: Trans-activation modulation of glucocorticoid receptor (GRAMMER), MMTV-LUC reporter in A549 cells
Type: cell-based
Conditions: for Transactivation A549 Cells Grammer Emax (%) / Emax: Emax relative to the activity obtained with 300 nM dexamethasone; for Transactivation A549 Cells Grammer Emax (%) / pEC50: A549 cells; for pEC50: IP = inflection point, read-out: Transactivation A549 Cells Grammer IP; for Emax: A549, A549 cells, read-out: Transactivation A549 Cells Grammer Emax (%)
From the text: Trans-Activation Modulation of Glucocorticoid Receptor (GRAMMER)
This assay assesses the ability of test compounds to control transcription from the MMTV-LUC reporter gene in lung adenocarcinoma A549 cells or HeLa cells, a human […] cell line that naturally expresses the human GR. The assay measures induction of a modified MMTV LTR/promoter linked to the LUC reporter gene.
The routine transient assay consists of plating 7,000-25,000 cells/well of a white, clear-bottom 96-well plate. Alternatively, 384-well plates can be used at a cell concentration of 10,000/well. The media that the cells are plated in is “exponential growth medium” which consists of phenol red-free RPMI1640 containing 10% FBS, 4 mM L-glutamine, 20 mM HEPES, 10 ug/mL human insulin, and 20 ug/mL gentamicin. Incubator conditions are 37° C. and 5% C02. The transfection is done in batch mode. The cells are trypsinized and counted to the right cell number in the proper amount of fresh media. It is then gently mixed with the FuGene6/DNA 25 mix and plated onto the 96 or 384-well plate, all the wells receive 100 uL or 40 uL, respectively, of medium+lipid/DNA complex then incubated 37° C. overnight. The transfection cocktail consists of serum-free OptiMEM, FuGene6 reagent and DNA. The manufacturer's (Roche Biochemical) protocol for cocktail setup is as follows: The lipid to DNA ratio is approximately 2.5:1 and the incubation time is 20 min at room temperature. Sixteen to 24 h after transfection, the cells are treated with dexamethasone to a final concentration of 10 nM as well as the compound of interest, such that final DMSO (vehicle) concentration is equal to or less than 1%. Each plate also contains samples that are treated with 10 nM dexamethasone alone, which is used as the 100% activity control. The cells are exposed to the compounds for 24 h. After 24 h, the cells are lysed by a Promega cell culture lysis buffer for approximately 30 min and then the luciferase activity in the extracts is assayed in the 96-well format luminometer. In 384 well format, Steady-Glo (Promega) or Steady-Lite (PerkinElmer) can be used by adding an equal volume of reagent to the media present in each well. Activity induced by 10 nM dexamethasone alone is set at 100% activity. Antagonist activity is calculated by determining the decrease in dexamethasone-induced activity in response to compound treatment relative to samples that were treated with dexamethasone alone. Results are expressed as % inhibition of 10 nM dexamethasone activity or as fold of 10 nM dexamethasone activity. This transactivation assay can be performed in an agonist and antagonist mode to identify these different activities.
Activity of test compounds is calculated as the Emax relative to the activity obtained with 300 nM dexamethasone. […] The exemplified tissue selective glucocorticoid receptor modulators of the present invention display agonist activity in this assay of greater than 5% and less than 100%, and maximal transactivation activity less then maximal transrepression activity. The action of compounds is also tested in an antagonist mode (Anti-GRAMMER) in which the cells are treated with medium containing an agonist such as 10 nM DEX and the ability of agents to inhibit the activation by an agonist is measured.

| SMILES | Transactivation A549 Cells Grammer Emax (%) | pEC50 | Emax [%] |
| --- | --- | --- | --- |
| NC(=O)C(O)c1ccccc1CC[C@]1(O)CCC2=Cc3c(cnn3-c3ccc(F)cc3)C[C@@]21C1CC1 (single isomer, unassigned) [Example 3b] | 19 | 6.97 | – |
| CC[C@]12Cc3cnn(-c4ccccc4)c3C=C1CC[C@@]2(O)CC(O)c1ccccn1 (single isomer, unassigned) [Example 67a] | – | 6.55 | 20 |
| CC[C@]12Cc3cnn(-c4ccccc4)c3C=C1CC[C@@]2(O)CC(O)c1ccccn1 (single isomer, unassigned) [Example 67b] | 10 | 6.76 | – |
| CC[C@]12Cc3cnn(-c4ccc(F)cc4)c3C=C1CC[C@@]2(O)CC(O)c1ccc(F)cn1 (single isomer, unassigned) [Example 69a] | – | 6.77 | 33 |
| CC[C@]12Cc3cnn(-c4ccc(F)cc4)c3C=C1CC[C@@]2(O)CC(O)c1ccc(F)cn1 (single isomer, unassigned) [Example 69b] | 26 | 6.95 | – |
| OC(C[C@]1(O)CCC2=Cc3c(cnn3-c3ccc(F)cc3)C[C@@]21C1CC1)c1ccc(F)cn1 (single isomer, unassigned) [Example 79a] | – | 6.73 | 10 |
| NC(=O)c1cccnc1CC[C@]1(O)CCC2=Cc3c(cnn3-c3ccc(F)cc3)C[C@@]21C1CC1 [Example 1, 2-{2-[(4aR,5R)-4a-Cyclopropyl-1-(4-fluorophenyl)-5-hydroxy-1,4,4a,5,6,7-hexahydrocyclopenta[f]indazol-5-yl]ethyl}pyridine-3-carboxamide] | – | 7.21 | 27 |
| NC(=O)c1cc(F)cnc1CC[C@]1(O)CCC2=Cc3c(cnn3-c3ccc(F)cc3)C[C@@]21C1CC1 [Example 4, 2-{2-[(4aR,5R)-4a-Cyclopropyl-1-(4-fluorophenyl)-5-hydroxy-1,4,4a,5,6,7-hexahydrocyclopenta[f]indazol-5-yl]ethyl}-5-fluoropyridine-3-carboxamide] | – | 6.94 | 14 |
| CC[C@]12Cc3cnn(-c4cccnc4)c3C=C1CC[C@@]2(O)CCc1ccccc1C#N [Example 5, 2-{2-[(4aS,5R)-4a-Ethyl-5-hydroxy-1-(pyridin-3-yl)-1,4,4a,5,6,7-hexahydrocyclopenta[f]indazol-5-yl]ethyl}benzonitrile] | – | 7.33 | 29 |
| CC[C@]12Cc3cnn(-c4ccccc4)c3C=C1CC[C@@]2(O)CCc1ccc(F)cc1C(N)=O [Example 6] | – | 6.75 | 26 |
| NC(=O)c1ccccc1CC[C@]1(O)CCC2=Cc3c(cnn3-c3cccc(F)c3)C[C@@]21C1CC1 [Example 7, 2-{2-[(4aR,5R)-4a-Cyclopropyl-1-(3-fluorophenyl)-5-hydroxy-1,4,4a,5,6,7-hexahydrocyclopenta[f]indazol-5-yl]ethyl}benzamide] | – | 6.84 | 7 |
| CC[C@]12Cc3cnn(-c4ccc(F)cc4)c3C=C1CC[C@@]2(O)CCc1ccc(F)cc1C(N)=O [Example 8, 2-{2-[(4aS,5R)-4a-Ethyl-1-(4-fluorophenyl)-5-hydroxy-1,4,4a,5,6,7-hexahydrocyclopenta[f]indazol-5-yl]ethyl}-5-fluorobenzamide] | – | 6.97 | 47 |
| CC[C@]12Cc3cnn(-c4cccnc4)c3C=C1CC[C@@]2(O)CCc1ccc(F)cc1C#N [Example 9, 2-{2-[(4aS,5R)-4a-Ethyl-5-hydroxy-1-(pyridin-3-yl)-1,4,4a,5,6,7-hexahydrocyclopenta[f]indazol-5-yl]ethyl}-5-fluorobenzonitrile] | – | 7.12 | 15 |
| CC[C@]12Cc3cnn(-c4cccnc4)c3C=C1CC[C@@]2(O)CCc1cccc(F)c1C#N [Example 10, 2-{2-[(4aS,5R)-4a-Ethyl-5-hydroxy-1-(pyridin-3-yl)-1,4,4a,5,6,7-hexahydrocyclopenta[f]indazol-5-yl]ethyl}-6-fluorobenzonitrile] | – | 6.94 | 20 |
| CC[C@]12Cc3cnn(-c4cccc(F)c4)c3C=C1CC[C@@]2(O)CCc1ccccc1C(N)=O [Example 11, 2-{2-[(4aS,5R)-4a-Ethyl-1-(3-fluorophenyl)-5-hydroxy-1,4,4a,5,6,7-hexahydrocyclopenta[f]indazol-5-yl]ethyl}benzamide] | – | 7.08 | 41 |
| CC[C@]12Cc3cnn(-c4cccc(F)c4)c3C=C1CC[C@@]2(O)CCc1cccc(F)c1C(N)=O [Example 12, 2-{2-[(4aS,5R)-4a-Ethyl-1-(3-fluorophenyl)-5-hydroxy-1,4,4a,5,6,7-hexahydrocyclopenta[f]indazol-5-yl]ethyl}-6-fluorobenzamide] | – | 7.64 | 58 |
| CC[C@]12Cc3cnn(-c4cccnc4)c3C=C1CC[C@@]2(O)CCc1ccccc1C(N)=O [Example 13, 2-{2-[(4aS,5R)-4a-Ethyl-5-hydroxy-1-(pyridin-3-yl)-1,4,4a,5,6,7-hexahydrocyclopenta[f]indazol-5-yl]ethyl}benzamide] | – | 6.65 | 34 |
| CC[C@]12Cc3cnn(-c4cccnc4)c3C=C1CC[C@@]2(O)CCc1cccc(F)c1C(N)=O [Example 14, 2-{2-[(4aS,5R)-4a-Ethyl-5-hydroxy-1-(pyridin-3-yl)-1,4,4a,5,6,7-hexahydrocyclopenta[f]indazol-5-yl]ethyl}-6-fluorobenzamide] | – | 7.06 | 51 |
| CC[C@]12Cc3cnn(-c4ccccc4)c3C=C1CC[C@@]2(O)CCc1cccc(F)c1C#N [Example 15, 2-{2-[(4aS,5R)-4a-Ethyl-5-hydroxy-1-phenyl-1,4,4a,5,6,7-hexahydrocyclopenta[f]indazol-5-yl]ethyl}-6-fluorobenzonitrile] | – | 7.21 | 29 |
| CC[C@]12Cc3cnn(-c4ccc(F)cc4)c3C=C1CC[C@@]2(O)CCc1ccccn1 [Example 16, (4aS,5R)-4a-Ethyl-1-(4-fluorophenyl)-5-[2-(pyridin-2-yl)ethyl]-1,4,4a,5,6,7-hexahydrocyclopenta[f]indazol-5-ol] | – | 7.10 | 31 |
| CC[C@]12Cc3cnn(-c4ccc(F)cc4)c3C=C1CC[C@@]2(O)CCc1ncccc1F [Example 17, (4aS,5R)-4a-Ethyl-1-(4-fluorophenyl)-5-[2-(3-fluoropyridin-2-yl)ethyl]-1,4,4a,5,6,7-hexahydrocyclopenta[f]indazol-5-ol] | – | 7.52 | 44 |
| CC[C@]12Cc3cnn(-c4ccc(F)cc4)c3C=C1CC[C@@]2(O)CCc1cc(F)ccn1 [Example 18, (4aS,5R)-4a-Ethyl-1-(4-fluorophenyl)-5-[2-(4-fluoropyridin-2-yl)ethyl]-1,4,4a,5,6,7-hexahydrocyclopenta[f]indazol-5-ol] | – | 7.28 | 32 |
